“Also recorded” adds a separate entry of the source.
How the values were obtained:
[1] = system: 4T1 breast cancer cell line; assay: Seahorse glycostress assay (ECAR); type: cell-based, murine; settings: 4T1 cells, 6 h; for glycolytic inhibitory properties compared to NaDCA: 200 μM vs NaDCA 600 μM; for glycolysis inhibition (ECAR): compared with control group
Description: FIGS. 3A-3C show cellular glycolysis inhibition by Mito-SilylDCA. Glycolytic inhibition efficacy of Mito-SilylDCA was investigated along with the components used for synthesizing Mito-SilylDCA. (FIG. 3A) Chemical structures of TPP-(CH2)5—COOH), methoxyl(octadecyldimethyl)silane, sodium dichloroacetate (NaDCA), Mito-DCA, and Mito-SilylDCA. (FIG. 3B) Extracellular acidification rate (ECAR) measured in 4T1, murine breast cancer cell line, upon treatment with the compounds mentioned in A. The cells were pre-treated with the test articles at the following concentration: TPP-(CH2)5—COOH (200 μM), methoxy (octadecyldimethyl)silane (200 μM), NaDCA (600 μM), Mito-DCA (200 μM), or Mito-Silyl-DCA (200 μM), for 6 h. Port injections for the seahorse glycostress assay included glucose (10 mM) in port A, oligomycin (1 μM) in port B, and 2-DG (50 mM) in port C. (FIG. 3C) Graphical representation quantifying the change in glycolysis, glycolytic capacity, and glycolytic reserve parameters upon treatment with test articles. The data in FIG. 3C was generated as an average from 3 independent biological replicates. The statistical significance between the treatment groups was measured by ordinary one-way analysis of variance (ANOVA) using multiple comparison.
Cellular glycolysis inhibition by Mito-SilylDCA. Glycolysis inhibitory efficacy of Mito-Silyl-DCA was investigated in 4T1 breast cancer cell line which is known to be aggressive and highly glycolytic in nature with an overexpression of PDK1.^6 The Seahorse glycostress assay was performed to understand the metabolic fluxes of glycolysis. The 4T1 cells grown in normoxia were treated with TPP-(CH2)5—COOH) (200 μM), methoxyl(octadecyldimethyl)silane (200 μM), NaDCA (600 μM), Mito-DCA (200 μM), or Mito-Silyl-DCA (200 μM) for 6 h followed by washing and returning the cells to a glucose-free medium (FIG. 3A). The extracellular acidification rate (ECAR) traces were then monitored in response to the sequential administration of glucose, oligomycin, and 2-deoxy-D-glucose (2-DG) to assess glycolysis, glycolytic capacity, and glycolytic reserve, respectively. […] The data shown here are average from three independent biological replicates.
Glycolysis inhibition in highly glycolytic cells. This example documented inhibition of glycolysis in 4T1 cells by Mito-SilylDCA using Seahorse glycostress assay (FIG. 3B). The Seahorse glycostress assay was performed to check the metabolic fluxes of glycolysis. 4T1 cells were treated with TPP-hexanoic acid (200 μM), methoxyl(octadecyldimethyl)silane (200 μM), sodium dichloroacetate (DCA) (600 μM), Mito-DCA (200 μM), or Mito-SilylDCA (200 μM) for 6 h followed by washout and returned to glycose-free medium. The extracellular acidification rate (ECAR) was monitored in response to the sequential administration of glucose, oligomycin, and 2-deoxy-D-glucose (2-DG) to assess glycolysis, glycolytic capacity, and glycolytic reserve, respectively (FIG. 3C).

[2] = Stability at different pH values by HPLC and LC-MS (Example 1); type: physicochemical; settings: for degradation / stability at acidic pH: acidic pH (4.0); for stability in alkaline conditions: alkaline conditions (pH 9.5); for stability in alkaline conditions / hydrolysis in neutral conditions: DMF-water (2/1, v/v), room temperature; for hydrolysis in neutral conditions: neutral conditions (pH 7.4)
Procedure: FIGS. 2A-2B. Stability of Mito-SilylDCA at different pH values. Traces of HPLC plots of (FIG. 2A) Mito-SilylDCA and (FIG. 2B) Mito-DCA in solutions of different pH values along with plots of percent of the compound remained with time. A solution of Mito-SilylDCA or Mito-DCA in DMF-water (2/1, v/v) was incubated for different times (12 h, 24 h, and 48 h) at different pH environments (4.0, 7.4, and 9.5) at room temperature.
Stability of Mito-SilylDCA. A combination of HPLC and LC-MS analytical techniques were employed to understand the stability of Mito-SilylDCA in different physiological environments. A solution of Mito-SilylDCA or Mito-DCA in DMF-water (2/1, v/v) was incubated for 12, 24, and 48 h at different pH environments of 4.0, 7.4, and 9.5 at room temperature and the degradation behavior of the compounds was analyzed with HPLC and LC-MS (FIGS. 2A and 2B). […] After 12 h, more than 60% of compounds are decomposed at pH 7.4, which should be due to the hydrolysis of DCA and the silyl chain. […] Both Mito-DCA and Mito-SilylDCA were unstable in alkaline conditions and the compounds decomposed easily. […] The better stability of Mito-SilylDCA compared to Mito-DCA would be beneficial for the long-term storage and further application in biological environment.

[3] = Chemical stability at different pH by HPLC and LC-MS (Example 2); type: physicochemical; settings: DMF/water (1/1, v/v), 24 h, pH 4.5, 5.5, 6.5, 7.4, 8.5, room temperature
Procedure: Stability of Mito-SilylDCA. With Mito-SilylDCA in hand, the chemical stability was checked to ensure the efficacy of drug in different physiological environments. A mixed solution of Mito-SilylDCA in DMF/water (1/1, v/v) was incubated for 24 h in different pH environment (4.5, 5.5, 6.5, 7.4, 8.5) at room temperature. Then the solutions were measured with HPLC and LC-MS to check the degradation behavior of the compounds.

[4] = mouse, in vivo
Procedure: Thus, the experiment investigated the efficacy of T-Mito-SilylDCA-NPs in an in vivo mouse model in combination with a cisplatin prodrug, Platin-M^20-21. […] Thus for this study, luciferase tagged MDA-MB-231BR^Luc cells in Balb/c nude mice were used. The experiment implanted MDA-MB-231BR^Luc cells in the right flank of N=7 female Balb/c nude mice (FIG. 5A). […] Once the tumors were established, these animals were treated with a combination of T-Platin-M-NP and T-Mito-SilylDCA-NP in a sequential manner to inhibit first OXPHOS with T-Platin-M-NP^20 and simultaneous inhibition of resulting glycolysis T-Mito-SilylDCA-NP. This study included two groups: Group 1, saline with n=3 animals and group 2, combination of T-Platin-M-NPs and T-Mito-SilylDCA-NPs with n=4 animals (FIG. 5A). The tumor bearing animals were treated with saline or combination therapeutics for 4 weeks following a biweekly treatment regimen which involved tail i.v injections of 10 mg/kg dose of T-Platin-M-NP with respect to Platin-M 24 h prior to 30 mg/kg dose of T-Mito-Silyl-DCA-NP with respect to Mito-SilylDCA. […] All the images were taken at the same aperture and field of view was kept at 22.4 cm. […]
The present study administered T-Mito-SilylDCA to mice via intravenous injection and quantified the accumulation of NPs using ICP-MS analyses.

In the case of `O=C(CCCCC[P+](c1ccccc1)(c1ccccc1)c1ccccc1)NC(COC(=O)C(Cl)Cl)(COC(=O)C(Cl)Cl)COC(=O)C(Cl)Cl` [Mito-DCA, reference compound], the “glycolytic inhibitory properties compared to NaDCA” value [1] is reported as “significantly higher”, the “glycolysis inhibition (ECAR)” value ([1]; 200 μM) is reported as “significant glycolysis inhibition” and the “degradation / stability at acidic pH” value [2] is reported as “relatively slow degradation”. For the same compound, the “stability in alkaline conditions” value [2] was “unstable” and the “hydrolysis in neutral conditions” value [2] was “hydrolyzed in a short time”.
With `CCCCCCCCCCCCCCCCCC[Si](C)(C)OCC(COC(=O)C(Cl)Cl)(COC(=O)C(Cl)Cl)NC(=O)CCCCC[P+](c1ccccc1)(c1ccccc1)c1ccccc1` [Mito-SilylDCA] the “glycolytic inhibitory properties compared to NaDCA” value [1] was “significantly higher”, the “glycolysis inhibition capability compared to Mito-DCA” value ([1]; 200 μM) was “not significantly decreased” and the “glycolysis inhibition (ECAR)” value ([1]; 200 μM) was “significant inhibition of glycolysis”. For the same compound, the “decomposition compared with Mito-DCA” value ([2]; acidic conditions (pH 4.0), period of 24 h) was “slower than Mito-DCA”, the “degradation / stability at acidic pH” value [2] was “relatively slow degradation; also recorded: most stable at an acidic pH” and the “stability in alkaline conditions” value [2] was “unstable”. For the same compound, the “hydrolysis in neutral conditions” value [2] was “hydrolyzed in a short time”, the chemical stability [3] was “stable in neural and weak acidic conditions” and the “accumulation in the tumor” value [4] was “a significant portion of Mito-SilylDCA accumulated in the tumor”. For the same compound, the “biodistribution: organs in which present” value [4] was “liver, tumor mass, brain, kidney, and spleen”.
For `O=C(O)CCCCC[P+](c1ccccc1)(c1ccccc1)c1ccccc1.[Br-]` [TPP-(CH2)5—COOH), (5-carboxypentyl)triphenylphosphonium bromide, reference compound], the “glycolysis inhibition (ECAR)” value ([1]; 200 μM) was “No detectable changes in glycolysis levels”.
For `CCCCCCCCCCCCCCCCCC[Si](C)(C)OC` [methoxyl(octadecyldimethyl)silane, reference compound], the “glycolysis inhibition (ECAR)” value ([1]; 200 μM) was “No detectable changes in glycolysis levels”.
